Results from US9814703B2, “Methods for treating cancer by activation of BMP signaling” (The Board of Trustees of the Leland Stanford Junior …, priority 2013, dated 2017).

Columns and labels:
[1] = test system: primary human bladder stromal cells; assay: Hh pathway stimulation of primary human bladder stromal cells, gene expression by quantitative RT-PCR; type: cell-based; conditions: 24 hours; for Expression of BMP4 increased as compared to the unstimulated control / Expression of BMP5 increased as compared to the unstimulated control / Expression of GLI1 increased as compared to the unstimulated control: serum-starved, SAG 200 nM or Shh conditioned medium (ShhN)
Source text: (§1) To determine whether Hh signaling regulates expression of BMP4 and BMP5 in human bladder, we first examined the expression of Hh pathway components in primary human bladder fibroblasts and epithelial cells. […] To evaluate response to the Hh signal, we treated cultured human bladder stromal and urothelial cells with ShhN protein or with the chemical pathway agonist SAG^24. […] Concomitant with the increase in GLI1 mRNA upon stimulation of the cultured human bladder stromal fibroblasts, we noted an increase in levels of BMP4 and BMP5 transcripts (FIG. 4B).
For BBN-induced bladder carcinogenesis, a 0.1% concentration of BBN was provided to mice ad libitum for 4-6 months. For Smo deletion experiments, a transgene expressing tamoxifen-activated Cre was used to selectively inactivate a conditional allele of Smo. To activate the BMP pathway, Alzet osmotic pumps were implanted subcutaneously to administer FK506 to mice exposed to BBN. Quantitative RT-PCR was used for measurement of RNA levels in samples isolated from the human and mouse bladder samples. For in vitro cultures, primary human bladder urothelial and stromal cells were treated with FK506 for 12 hours, or serum-starved and treated with SAG or Shh conditioned medium with or without cyclopamine for 24 hours prior to gene expression analyses.
(§2) Bladder samples were snap frozen in liquid nitrogen, homogenized with a mortar and pestle, and RNA extracted with the RNeasy Plus Mini kit (Qiagen). For quantitative RT-PCR of mRNA transcripts, first-strand cDNA was made using the SuperScript III First-Strand Synthesis SuperMix (Invitrogen 18080-400). Quantitative RT-PCR was performed using iQ SYBR Green Supermix (Bio-Rad 170-8880) and the Bio-Rad iCycler.
Primary human bladder urothelial cells (ScienCell 4320) and bladder stromal fibroblasts (ScienCell 4330) were cultured in Urothelial Cell Medium (ScienCell 4321) and Fibroblast Medium (ScienCell 2301) respectively to sub-confluency. Cells were then starved for 12 hours, followed by addition of Shh conditioned medium in the absence or in the presence of cyclopamine (3 uM, Toronto Research Chemicals), or treated with the Shh pathway agonist SAG (200 nM, Millipore) for 24 hours. In separate experiments, cells were treated with 20 ng/ml FK506 (Cayman Chemical) or DMSO for 12 hours. Following treatment, RNA was extracted using the Trizol reagent.

[2] = test system: primary human bladder urothelial cells; assay: Hh pathway stimulation of primary human bladder urothelial cells, gene expression by quantitative RT-PCR; type: cell-based; conditions: SAG 200 nM or ShhN, 24 hours
Source text: as §1
For BBN-induced bladder carcinogenesis, a 0.1% concentration of BBN was provided to mice ad libitum for 4-6 months. For Smo deletion experiments, a transgene expressing tamoxifen-activated Cre was used to selectively inactivate a conditional allele of Smo. […] Quantitative RT-PCR was used for measurement of RNA levels in samples isolated from the human and mouse bladder samples. […]
as §2, with “iCycler. […]” for “iCycler.”

[3] = test system: primary human bladder urothelial cells; assay: BMP pathway activation in cultured urothelial cells, BMP target gene expression by quantitative RT-PCR; type: cell-based; conditions: 20 ng/ml FK506, 12 hours
Source text: As Bmp4 and Bmp5 secreted from stromal cells have the potential to act on urothelium, we tested the ability of cultured urothelial cells to respond to BMP pathway activation. For this purpose we selected FK506, an FDA-approved drug recently shown to activate BMP pathway at concentrations below those required for its immunosuppressant effects^27. […] Loss of Shh expression in human invasive carcinomas, as noted previously (FIG. 1A), would be expected to disrupt this signal feedback; this expectation was confirmed by a dramatic reduction of BMP4 and BMP5 expression in human invasive urothelial carcinoma as compared to benign bladder (FIG. 4D).
For BBN-induced bladder carcinogenesis, a 0.1% concentration of BBN was provided to mice ad libitum for 4-6 months. […] Quantitative RT-PCR was used for measurement of RNA levels in samples isolated from the human and mouse bladder samples. […]
as §2, with “iCycler. […]” for “iCycler.”

[4] = test system: BBN-induced bladder cancer; assay: BBN-induced bladder carcinogenesis in mice, progression to invasive carcinoma (histopathology); type: in vivo
Source text: To investigate the role of Bmp pathway activity in bladder tumor progression and to test the possibility that Bmp pathway activation might stimulate urothelial differentiation, which in turn might impede tumor progression, we exposed mice to BBN for 4 months, then initiated treatment with FK506 for another month while also continuing exposure to BBN (FIG. 5A). We have previously noted that mice exposed to BBN for 4 months develop pre-malignant lesions indistinguishable from human carcinoma-in-situ but not invasive carcinoma, which requires further BBN exposure^6.
For BBN-induced bladder carcinogenesis, a 0.1% concentration of BBN was provided to mice ad libitum for 4-6 months. For Smo deletion experiments, a transgene expressing tamoxifen-activated Cre was used to selectively inactivate a conditional allele of Smo. To activate the BMP pathway, Alzet osmotic pumps were implanted subcutaneously to administer FK506 to mice exposed to BBN. Quantitative RT-PCR was used for measurement of RNA levels in samples isolated from the human and mouse bladder samples. […]
A 0.1% concentration of BBN (TCI America) was dissolved in drinking water, and BBN-containing water was provided to mice ad libitum for 4-6 months in a dark bottle. […] Bladders were collected and analyzed after 4 to 6 months of BBN administration. […]

[5] = cyclopamine 3 uM added to Hh pathway stimulation

Row | Compound | Expression of BMP4 increased as compared to the unstimulated control [1] [fold] | Expression of BMP5 increased as compared to the unstimulated control [1] [fold] | Expression of GLI1 increased as compared to the unstimulated control [1] [fold] | Response of urothelial cells to Hh pathway stimulation (GLI1 expression) [2] | Expression of BMP target gene CDKN1B increased as compared to the DMSO control [3] [fold] | Expression of BMP target gene ID4 increased as compared to the DMSO control [3] [fold] | Progression of bladder cancer in mice ([4]; low-dose FK506, murine BBN model) | Development of invasive carcinoma in treated mice ([4]; mice exposed to BBN 5 months, FK506 0.05 mg/kg/day by subcutaneous osmotic pump during the final month, cohort of 10 mice (control 7 of 9 invasive)) | Effect of added cyclopamine on the stimulated increase of BMP4 and BMP5 expression [1, 5] | Effect of added cyclopamine on the stimulated increase of GLI1 expression [1, 5]
1 | CNC1CCC(N(Cc2cccc(-c3ccncc3)c2)C(=O)c2sc3ccccc3c2Cl)CC1 (centres unmarked) [SAG] | 5.8 | 2 | 5.4 | did not respond |  |  |  |  |  | 
2 | ShhN: ShhN protein, Hh ligand, applied as Shh conditioned medium | 3.9 | 1.6 | 1.6 | did not respond |  |  |  |  |  | 
3 | C=CC[C@@H]1/C=C(\C)C[C@H](C)C[C@H](OC)[C@H]2O[C@@](O)(C(=O)C(=O)N3CCCC[C@H]3C(=O)O[C@H](/C(C)=C/[C@@H]3CC[C@@H](O)[C@H](OC)C3)[C@H](C)[C@@H](O)CC1=O)[C@H](C)C[C@@H]2OC [FK506] |  |  |  |  | 2.4 | 1.6 | halts progression | no invasive carcinoma was observed |  | 
4 | CC1=C2C[C@H]3[C@@H](CC=C4C[C@@H](O)CC[C@@]43C)[C@@H]2CC[C@]12O[C@@H]1C[C@H](C)CN[C@H]1[C@H]2C [cyclopamine] |  |  |  |  |  |  |  |  | reversed | reversed
